Test results from patent publication US20190022162A1, “COMBINATION ANTICANCER ENDOWED WITH ANTITUMOR ACTIVITY, COMPRISING ALKALOIDS OF CHELIDONIUM MAJUS” (International Society for Drug Development S.R.L., priority 2015, published 2019).

How the values were obtained:
[1] = Cell counting (Trypan blue, Neubauer chamber), HDF cells; type: cell-based, human; conditions: human, human dermal fibroblasts (HDF)
Protocol: (§1) For sake of completeness' of information and for the purpose of evaluating the differential cytotoxicity exerted both by the individual components of the combinations and by the combinations themselves on tumour and normal cells, the same treatments tested on U343 cells were also conducted on human dermal fibroblasts (HDF), chosen as a model of cells not concerned by tumour pathologies; this allowed, in the case of treatments tested on U343 cells, evaluations of the differential effects of the tested agents against tumour cells and against a model of normal cells, in accordance with the invention.
(§2) The U343 cells and the HDF cells were cultivated in T25 flasks and treated with the agents after reaching a confluence of 90%. After 48 hours of treatment, the cells were detached with trypsin-EDTA and suspended in medium consisting of 50% DMEM and 50% Trypan blue. The number of viable cells after each treatment was estimated by using the Neubauer counting chamber, excluding cells positive to Trypan blue. At least three countings were made for each treatment.
(§3) The percentage of viable cells compared to the control was determined by the ratio between the number of treated cells and the number of untreated cells.

[2] = test system: MIA PaCa-2 (pancreatic carcinoma); test: WST-1 assay (dehydrogenase activity / cell viability), MIA PaCa-2 cells
[3] = test system: MIA PaCa-2 pancreatic cancer cell line; test: Cell counting (Trypan blue, Neubauer chamber), MIA PaCa-2 cells; type: cell-based; conditions: for percentage of viable cells relative to the control: 48 h
Protocol: The MIA PaCa-2 cells were cultivated in T25 flasks and treated with the agents after reaching a confluence of 90%. After a 48 hours treatment, the cells were detached with trypsin-EDTA and suspended in medium consisting of 50% DMEM and 50% Trypan blue. The number of viable cells after each treatment was estimated by using the Neubauer counting chamber, excluding those cells which turned out positive to Trypan blue. At least three counts were made for each treatment.
The percentage of viable cells relative to the control was determined by the ratio between the number of treated cells and the number of untreated cells.

U343 cells / HDF cells = test: Therapeutic Favourability Index (ratio of viable U343 to viable HDF cells); type: cell-based
From the text: It may be useful to remind that the TFI parameter allows estimating the ratio between desired cytotoxicity (on U343 cells) and undesired cytotoxicity (on HDF cells used as a normal cell model). The lower the value of the TFI parameter, the more the assayed agent is adequate for therapeutic use, since this parameter measures the ratio between desired cytotoxicity (on tumour cells) and undesired cytotoxicity (on the cells of the non-tumour model).

U343 (glioblastoma) [4] = test: WST-1 assay (dehydrogenase activity / cell viability), U343 cells; conditions: 48 h
U343 (glioblastoma) [5] = test: Cell counting (Trypan blue, Neubauer chamber), U343 cells; type: cell-based; conditions: for percentage of viable cells compared to the control: 48 h
Protocol: as §2, §3

[6] = test system: human dermal fibroblasts (HDF); test: Cell counting (Trypan blue, Neubauer chamber), HDF cells; type: cell-based
Protocol: as §1, §2, §3

[7] = 2.154 μM (combination equimolar)
[8] = 4.642 μM (combination equimolar)

## Cn1nnc2c(C(N)=O)ncn2c1=O [temozolomide, reference compound]
[1]; direct administration, decrease up to, read-out: reduction in the percentage of viable HDF cells
  cytotoxicity at 48 h: 60 to 70%

## Nc1ccn([C@@H]2O[C@H](CO)[C@@H](O)C2(F)F)c(=O)n1 [Gemcitabine, gemcitabine, reference compound]
[2]; agent alone, 0.1-10 μM
  effect on cell metabolic activity: essentially negligible increase
[3]; Gemcitabine 20 μM
  percentage of viable cells relative to the control: 33%
[3]; Homo sapiens, MIA PaCa-2, 48 h, Gemcitabine 20 μM, read-out: percentage of viable cells relative to the control
  viability at 20 µM: > 30%

## COc1ccc2cc3[n+](cc2c1OC)CCc1cc2c(cc1-3)OCO2 [Berberine, berberine]
U343 cells / HDF cells; 0.464 μM
  TFI index U343/HDF % proliferation ratio: 1.137
U343 cells / HDF cells; 2.154 μM
  TFI index U343/HDF % proliferation ratio: 1.173
U343 cells / HDF cells; 10.0 μM
  TFI index U343/HDF % proliferation ratio: 0.888
[2]; 0.215 μM (combination equimolar), 48 h
  Δ (viability %): 5.73%
[2]; starting from concentrations slightly lower than 10 μM
  decrease in the metabolic activity: approx. 50%
U343 (glioblastoma) [4]; 0.1 μM (combination equimolar)
  Δ (viability %): 23.2128%
U343 (glioblastoma) [4]; 0.215 μM (combination equimolar)
  Δ (viability %): 12.3254%
U343 (glioblastoma) [4]; 0.464 μM (combination equimolar)
  Δ (viability %): 36.3599%
U343 (glioblastoma) [4]; 1 μM (combination equimolar)
  Δ (viability %): 27.3008%
U343 (glioblastoma) [4]; [7]
  Δ (viability %): 15.4889%
U343 (glioblastoma) [4]; [8]
  Δ (viability %): 11.3394%
U343 (glioblastoma) [4]; 10 μM (combination equimolar)
  Δ (viability %): 10.3533%
U343 (glioblastoma) [5]; 0.464 μM
  % proliferation of U343 against control: 94.00%
U343 (glioblastoma) [5]; 2.154 μM
  % proliferation of U343 against control: 82.60%
U343 (glioblastoma) [5]; 10.0 μM
  % proliferation of U343 against control: 59.80%
U343 (glioblastoma) [5]; Ber 0.464 μM
  percentage of viable cells compared to the control: 94%
U343 (glioblastoma) [5]; Ber 2.154 μM
  percentage of viable cells compared to the control: 82.6%
U343 (glioblastoma) [5]; Ber 10 μM
  percentage of viable cells compared to the control: 59.8%
[3]; Ber 0.4 μM
  percentage of viable cells relative to the control: 88%
[3]; Ber 2.0 μM
  percentage of viable cells relative to the control: 51%
[3]; Ber 10 μM, listed as Ber
  percentage of viable cells relative to the control: 33%
[3]; Ber 50 μM
  percentage of viable cells relative to the control: 24%
[6]; 0.464 μM
  % proliferation of HDF against control: 82.65%
[6]; 2.154 μM
  % proliferation of HDF against control: 71.41%
[6]; 10.0 μM
  % proliferation of HDF against control: 67.35%
[1]; Ber 0.464 μM, 48 h, read-out: percentage of viable cells compared to the control
  viability at 48 h, 0.464 μM: 82.7%
[1]; Ber 2.154 μM, 48 h, read-out: percentage of viable cells compared to the control
  viability at 48 h, 2.154 μM: 70.4%
[1]; Ber 10 μM, 48 h, read-out: percentage of viable cells compared to the control
  viability at 48 h, 10 μM: 67.3%

## CN1Cc2c(ccc3c2OCO3)[C@@H]2[C@H]1c1cc3c(cc1C[C@@H]2O)OCO3 [Chelidonine, chelidonine]
U343 (glioblastoma) [4]; 0.1 μM (combination equimolar)
  Δ (viability %): 2.4722%
U343 (glioblastoma) [4]; 1 μM (combination equimolar)
  Δ (viability %): 25.9168%
U343 (glioblastoma) [4]; [7]
  Δ (viability %): 40.0495%
U343 (glioblastoma) [4]; [8]
  Δ (viability %): 24.4335%
U343 (glioblastoma) [4]; 10 μM (combination equimolar)
  Δ (viability %): 14.3799%
